Assay results from patent US20120202794A1 (priority 2011, published 2012).

How the values were obtained:
[1] = tested on: Huh7, HepG2, BxPC3, or CEM cells; assay: Cell cytotoxicity assay (MTS), CC90 as reported in Table 1, cell line not stated; assay type: cell-based; conditions: MTS assay; 8 days incubation; cell line not given
Outline: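 Compounds, serially diluted from 100 μM, were incubated 8 days at 37° C with Huh7, HepG2 or BxPC3 (2×10^3 cells/well) or CEM (5×10^3 cells/well). Viability was read by MTS, 2 h, absorbance 490 nm. CC90 (90% inhibition) was taken against untreated cells.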

HCV Replicon 1b = assay: HCV inhibition assay, HCV replicon 1b (Clone A or ET-lunet cells; RT-PCR or luciferase reporter); assay type: cell-based; conditions: Hepatitis C virus, 96 h, HCV replicon 1b; 4 days incubation; read-out: Replicon 1b potency EC90
Outline: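 Clone A (1500/well) or ET-lunet (3000/well) replicon cells treated with serially diluted compounds (0.5% DMSO, no G418) for 4 days at 37 °C. HCV RNA measured by one-step RT-PCR normalized to rRNA (ΔΔCt) or by luciferase luminescence versus DMSO controls; EC50/EC90 by curve fitting.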

Structure (SMILES): CC(C)C[C@H]1C(=O)N[C@@H](c2ccccc2)CN1C(=O)[C@@H]1C[C@H]1c1ccc(Cl)cc1 [Compound 301, (3S,6S)-4-((1R,2R)-2-(4-chlorophenyl)cyclopropanecarbonyl)-3-isobutyl-6-phenyl-piperazin-2-one]
- CC90 [1]: > 10000 nM
- EC90 (HCV Replicon 1b): 170 nM
